Results taken from BigSolDB 2.1.

O=C(O)CCCCCCCCCCC(=O)O
solubility (mole fraction)
Details | 288.15 K | 293.15 K | 298.15 K | 303.15 K | 308.15 K | 313.15 K | 318.15 K | 323.15 K | 328.15 K
in acetic acid | 0.00316 | 0.00434 | 0.00581 | 0.00776 | 0.0103 | 0.0136 | 0.0179 | 0.0235 | 0.0306
in acetone | 0.00286 | 0.00402 | 0.00543 | 0.00757 | 0.00995 | 0.0133 | 0.0178 | 0.0238 | 0.0318
in ethanol | 0.00793 | 0.0105 | 0.0138 | 0.0181 | 0.0236 | 0.0305 | 0.0394 | 0.0506 | 0.0648
in ethyl acetate | 0.00115 | 0.00165 | 0.00231 | 0.00327 | 0.00461 | 0.00638 | 0.00879 | 0.0121 | 0.0165
